According to patent US20230365585A1, “BENZODIAZEPINE DERIVATIVES USEFUL IN TREATING A RESPIRATORY SYNCYTIAL VIRUS INFECTION” (priority 2020, published 2023):

Tests used:
Cell cytotoxicity CC50 = assay type: cell-based; details: human; mean of at least two experiments
Excerpt: (§1) Plates were scanned and analysed using the Immunospot S6 Macro analyser, which is equipped with BioSpot analysis software for counting immunostained plaques (virospots). Plaque counts were used to calculate % infection relative to the mean of the plaque count in the virus control wells for RSV. […] Plaque EC50 and cell toxicity CC50 values are a mean of at least two experiments and figures are rounded to whole units.

RSV A2 = test: RSV plaque reduction assay; assay type: cell-based, RSV (RSV A2 ECACC, 0709161v); details: human respiratory syncytial virus, HepG2, 48 h, Hep-G2 cells, RSV A2, 2 days; mean of at least two experiments
Protocol: Compounds were subjected to RSV plaque reduction assays according to the following protocol.
Hep-G2 cells (ECACC, 85011430) were passaged in flasks and seeded in 24-well plates in DMEM containing antibiotics and supplemented with 10% FBS. During inoculation and subsequent incubation, cells were cultured in DMEM containing 2% FBS. 100 plaque forming unit/well of RSV (RSV A2 ECACC, 0709161v) was mixed with eight serial dilutions of compound. Subsequently, 100 µL of the virus/compound mixtures was added to confluent Hep-G2 cell monolayers. The cells and virus/compound mixtures were incubated at 37° C. in a humidified 5% CO2 incubator for 2 h prior to removal of the inoculum and addition of 1 mL of overlay (DMEM containing 2% FBS and 0.8% CMC) containing compound dilutions. The cells and were incubated at 37° C. in a humidified 5% CO2 incubator for 2 days.
Cells were washed with PBS before adding 75%/25% v/v EtOH/MeOH, for 3 min. Fix ative was removed and plates were washed with PBS. A pre-titrated amount of the primary antibody was added in 200 µL PBS/2% milk powder, and plates incubated for 90 min at 37° C. The plates were washed 3 times with PBS/0.05% Tween20 before addition of rabbit anti-goat horse radish peroxidase in 200 µL PBS/2% milk powder, and incubated for 1 h at 37° C. Following three wash steps with PBS/0.05% Tween20, 200 µL ready-to-use TrueBlue was added and plates were incubated at rt for 10-15 min before washing with water. After removal of water, plates were air-dried in the dark.
as §1

SMILES	CC50 (Cell cytotoxicity CC50) [µM]	EC50 (RSV A2) [µM]
CCNc1ccc(-c2nn3c(c2C(=O)N[C@H]2N=C(c4ccccc4)c4ccccc4NC2=O)OC(C)CCC3)c(F)n1 (single isomer, unassigned) [Example 10-1, (5R*)-2-[6-(ethylamino)-2-fluoropyridin-3-yl]-5-methyl-N-[(3S)-2-oxo-5-phenyl-1,3-dihydro-1,4-benzodiazepin-3-yl]-5,6,7,8-tetrahydropyrazolo[5,1-b][1,3]oxazepine-3-carboxamide]	> 25	0.026
CCNc1ccc(-c2nn3c(c2C(=O)N[C@H]2N=C(c4ccccc4)c4cccc(F)c4NC2=O)O[C@H](C)CCC3)c(F)n1 (single isomer, unassigned) [Example 11-1]	> 25	0.022
CCNc1ccc(-c2nn3c(c2C(=O)N[C@H]2N=C(c4ccccc4)c4cccc(F)c4NC2=O)OC(C)CCC3)c(F)n1 (single isomer, unassigned) [Example 11-2, (5S*)-2-[6-(ethylamino)-2-fluoropyridin-3-yl]-N-[(3S)-9-fluoro-2-oxo-5-phenyl-1,3-dihydro-1,4-benzodiazepin-3-yl]-5-methyl-5,6,7,8-tetrahydropyrazolo[5,1-b][1,3]oxazepine-3-carboxamide]	> 25	0.009
CC(C)Nc1ccc(-c2nn3c(c2C(=O)N[C@H]2N=C(c4ccccc4)c4ccccc4NC2=O)OC(C)CCC3)c(F)n1 (single isomer, unassigned) [Example 12-1, (5R*)-2-[2-fluoro-6-(propan-2-ylamino)pyridin-3-yl]-5-methyl-N-[(3S)-2-oxo-5-phenyl-1,3-dihydro-1,4-benzodiazepin-3-yl]-5,6,7,8-tetrahydropyrazolo[5,1-b][1,3]oxazepine-3-carboxamide]	> 25	0.035
CC(C)Nc1ccc(-c2nn3c(c2C(=O)N[C@H]2N=C(c4ccccc4)c4cccc(F)c4NC2=O)OC(C)CCC3)c(F)n1 (single isomer, unassigned) [Example 13-1, (5R*)-N-[(3S)-9-fluoro-2-oxo-5-phenyl-1,3-dihydro-1,4-benzodiazepin-3-yl]-2-[2-fluoro-6-(propan-2-ylamino)pyridin-3-yl]-5-methyl-5,6,7,8-tetrahydropyrazolo[5,1-b][1,3]oxazepine-3-carboxamide]	> 25	0.026
CC1CCCOc2c(C(=O)NC3N=C(c4ccccc4)c4ccccc4NC3=O)c(-c3ccccc3F)nn21 (single isomer, unassigned) [Example 14-1, (8R*)-2-(2-Fluorophenyl)-8-methyl-N-(2-oxo-5-phenyl-1,3-dihydro-1,4-benzodiazepin-3-yl)-5,6,7,8-tetrahydropyrazolo[5,1-b][1,3]oxazepine-3-carboxamide]	> 25	0.061
CC1CCCOc2c(C(=O)NC3N=C(c4ccccc4)c4cccc(F)c4NC3=O)c(-c3ccccc3F)nn21 (single isomer, unassigned) [Example 15-1, (8R*)-N-(9-fluoro-2-oxo-5-phenyl-1,3-dihydro-1,4-benzodiazepin-3-yl)-2-(2-fluorophenyl)-8-methyl-5,6,7,8-tetrahydropyrazolo[5,1-b][1,3]oxazepine-3-carboxamide]	> 25	0.047
CC1CCCn2nc(-c3ccc(F)cc3F)c(C(=O)N[C@H]3N=C(c4ccccc4)c4ccccc4NC3=O)c2O1 (single isomer, unassigned) [Example 16-1, (5R*)-2-(2,4-difluorophenyl)-5-methyl-N-[(3S)-2-oxo-5-phenyl-1,3-dihydro-1,4-benzodiazepin-3-yl]-5,6,7,8-tetrahydropyrazolo[5,1-b][1,3]oxazepine-3-carboxamide]	> 25	0.028
CC1CCCn2nc(-c3ccc(F)cc3F)c(C(=O)N[C@H]3N=C(c4ccccc4)c4cccc(F)c4NC3=O)c2O1 (single isomer, unassigned) [Example 17-1, (5R*)-2-(2,4-difluorophenyl)-N-[(3 S)-9-fluoro-2-oxo-5-phenyl-1,3-dihydro-1,4-benzodiazepin-3-yl]-5-methyl-5,6,7,8-tetrahydropyrazolo[5,1-b][1,3]oxazepine-3-carboxamide]	> 25	0.019
O=C(N[C@H]1N=C(c2ccccc2)c2cccc(F)c2NC1=O)c1c(-c2ccccc2F)nn2c1O[C@@H]1CC[C@H]2C1 (single isomer, unassigned) [Example 19-1, (1S*,8R*)-N-[(3 S)-9-fluoro-2-oxo-5-phenyl-2,3-dihydro-1H-1,4-benzodiazepin-3-yl]-4-(2-fluorophenyl)-7-oxa-2,3-diazatricyclo[6.2.1.0^2,6]undeca-3,5-diene-5-carboxamide]	> 25	0.049
O=C(N[C@H]1N=C(c2ccccc2)c2cccc(F)c2NC1=O)c1c(-c2ccccc2F)nn2c1O[C@H]1CC[C@@H]2C1 (single isomer, unassigned) [Example 19-2, (1R*,8S*)-N-[(3 S)-9-fluoro-2-oxo-5-phenyl-2,3-dihydro-1H-1,4-benzodiazepin-3-yl]-4-(2-fluorophenyl)-7-oxa-2,3-diazatricyclo[6.2.1.0^2,6]undeca-3,5-diene-5-carboxamide]	> 25	0.053
CCC1CCCn2nc(-c3ccccc3F)c(C(=O)N[C@H]3N=C(c4ccccc4)c4ccccc4NC3=O)c2O1 (single isomer, unassigned) [Example 24-1, (5R*)-5-ethyl-2-(2-fluorophenyl)-N-[(3S)-2-oxo-5-phenyl-2,3-dihydro-1H-1,4-benzodiazepin-3-yl]-5H,6H,7H,8H-pyrazolo[3,2-b][1,3]oxazepine-3-carboxamide]	> 25	0.111
CCC1CCCn2nc(-c3ccccc3F)c(C(=O)N[C@H]3N=C(c4ccccc4)c4cccc(F)c4NC3=O)c2O1 (single isomer, unassigned) [Example 25-1, (5R*)-5-ethyl-2-(2-fluorophenyl)-N-[(3S)-9-fluoro-2-oxo-5-phenyl-1,3-dihydro-1,4-benzodiazepin-3-yl]-5,6,7,8-tetrahydropyrazolo[5,1-b][1,3]oxazepine-3-carboxamide]	> 25	0.093
CCC1CCCn2nc(-c3ccc(C)nc3)c(C(=O)N[C@H]3N=C(c4ccccc4)c4ccccc4NC3=O)c2O1 (single isomer, unassigned) [Example 26-1, (5R*)-5-ethyl-2-(6-methylpyridin-3-yl)-N-[(3 S)-2-oxo-5-phenyl-2,3-dihydro-1H-1,4-benzodiazepin-3-yl]-5H,6H,7H,8H-pyrazolo[3,2-b][1,3]oxazepine-3-carboxamide]	> 25	0.314
CCC1CCCn2nc(-c3ccc(C)nc3)c(C(=O)N[C@H]3N=C(c4ccccc4)c4cccc(F)c4NC3=O)c2O1 (single isomer, unassigned) [Example 27-1, (5R*)-5-ethyl-N-[(3S)-9-fluoro-2-oxo-5-phenyl-2,3-dihydro-1H-1,4-benzodiazepin-3-yl]-2-(6-methylpyridin-3-yl)-5H,6H,7H,8H-pyrazolo[3,2-b][1,3]oxazepine-3-carboxamide]	> 25	0.295
CCc1ccc(-c2nn3c(c2C(=O)N[C@H]2N=C(c4ccccc4)c4cccc(F)c4NC2=O)O[C@@H]2CC[C@H]3C2)cn1 (single isomer, unassigned) [Example 30-1, (1S*,8R*)-4-(6-ethylpyridin-3-yl)-N-[(3S)-9-fluoro-2-oxo-5-phenyl-2,3-dihydro-1H-1,4-benzodiazepin-3-yl]-7-oxa-2,3-diazatricyclo[6.2.1.02,6]undeca-3,5-diene-5-carboxamide]	> 25	0.061
CCc1ccc(-c2nn3c(c2C(=O)N[C@H]2N=C(c4ccccc4)c4cccc(F)c4NC2=O)O[C@H]2CC[C@@H]3C2)cn1 (single isomer, unassigned) [Example 30-2, (1R*,8S*)-4-(6-ethylpyridin-3-yl)-N-[(3S)-9-fluoro-2-oxo-5-phenyl-2,3-dihydro-1H-1,4-benzodiazepin-3-yl]-7-oxa-2,3-diazatricyclo[6.2.1.02,6]undeca-3,5-diene-5-carboxamide]	> 25	0.063
CC(C)Nc1ccc(-c2nn3c(c2C(=O)N[C@H]2N=C(c4ccccc4)c4cccc(F)c4NC2=O)O[C@@H]2CC[C@H]3C2)cn1 (single isomer, unassigned) [Example 31-1, (1S*,8R*)-N-[(3S)-9-fluoro-2-oxo-5-phenyl-2,3-dihydro-1H-1,4-benzodiazepin-3-yl]-4-{6-[(propan-2-yl)amino]pyridin-3-yl}-7-oxa-2,3-diazatricyclo[6.2.1.02,6]undeca-3,5-diene-5-carboxamide]	> 25	0.063
